Experiments:
[1] = system: Dementia, Alzheimer's-Type; test: Case history 24; assay type: in vivo, human; details: before sibutramine
Protocol: 24. The Symptoms Due to Dementia, Alzheimer's-Type
person one was diagnosed with Dementia. The symptoms they suffered from included memory loss and severe confusion. They tried a variety of treatments to relieve their symptoms including choldine esterase inhibitors, antidepressants, Ritilin, and aterol. […] They were then tested off of sibutramine. […] They began to suffer from a lowered I.Q. and their memory deteriorated.

[2] = system: Severe Atypical Psychosis; test: Case history 1, Sibutramine Patient No. 97; assay type: in vivo, human; details: treatments before sibutramine
[3] = system: Sexual Function, ADD, and Rage Outbursts; test: Case history 3, Sibutramine Patient No. 100; assay type: in vivo, human; details: mood swings, cognitive, anger, sexual problems; before sibutramine
[4] = system: Sexual Gender Choice Change; test: Case history 7, Sibutramine Patient No. 99; assay type: in vivo, human; details: depression; impulsive behaviors, mood swings, epileptic symptoms
[5] = system: Tourette's Disease Tics, Violence, and ADHD; test: Case history 8, Sibutramine Patient No. 47; assay type: in vivo, human; details: over six years before sibutramine
[6] = system: Asocial Behavior, Violence, and Hyposexuality; test: Case history 10, Sibutramine Patient No. 54; assay type: in vivo, human; details: before sibutramine
[7] = system: Severe Post-Traumatic Stress Reaction; details: for response of PTSD symptoms to other medications: before sibutramine
Protocol: Finally, this patient was taken off of fluoxetine 20 mg when sibutramine treatment was initiated.

Huntington's Disease = test: Case history 12, Sibutramine Patient No. 113; assay type: in vivo, human; details: after worsening of symptoms
[8] = system: Tourette's Tics, Asocial Behavior, and Relief of Hyposexuality; details: before sibutramine
[9] = system: Non-Tourette's tics, obsessive-compulsive rituals, and attention deficit hyperactive disorder (ADHD); details: before sibutramine
[10] = system: Sexual Obsessive-Compulsive Behavior, ADD and Executive Function; test: Case history 6, Sibutramine Patient No. 77; assay type: in vivo, human; details: before sibutramine
[11] = system: ADHD Refractory to Other Treatments; assay type: in vivo, human; details: for response of ADHD to other medications: four years before sibutramine; for side effects of other medications: human, in vivo
Protocol: 16. ADHD Refractory to Other Treatments (Problem No. 6) Sibutramine Patient No. 16
The amphetamines made their nervous, jittery, and unable to sleep. […] They were started on sibutramine 10 mg every morning by mouth. […] After the first month, their dose was changed to 5 mg three times daily due to a five hour duration of effects.

[12] = system: frontal lobe executive function, ADHD, and hyposexuality; details: human, in vivo
[13] = system: Torticollis, Lingual Dystonia and Dyskinesia; test: Case history 23; assay type: in vivo, human; details: in vivo
Sexual Function and ADD = test: Case history 4, Sibutramine Patient No. 109; assay type: in vivo, human; details: before sibutramine

| Molecule | response to other medications [3] | response to other medications [4] | response to other medications [5] | response of PTSD symptoms to other medications [7] | response to other medications [8] | response to other medications [10] | response of ADHD to other medications [11] | further results |
| --- | --- | --- | --- | --- | --- | --- | --- | --- |
| COC(=O)C(c1ccccc1)C1CCCCN1 (stereo not drawn) [Ritilin] |  |  |  |  |  |  |  | response to other treatments [1]: None of these treatments had any effect on their symptoms |
| NC(=O)N1c2ccccc2C=Cc2ccccc21 [carbamazepine] | helped with their mood swings but not with their anger, sexual, or cognitive problems | impulsive behaviors, mood swings, and epileptic symptoms were relieved | without any good results | unsuccessful | without success |  |  | response of psychosis symptoms to other medications [2]: did not control their symptoms; response to other medications [6]: without any changes in their speech or mode of communication; response to previous medications (Huntington's Disease): no longer responded; response to other medications [9]: unsuccessful |
| C[C@H](N)Cc1ccccc1 [dextroamphetamine] | unsuccessful |  |  | unsuccessful | without success | unsuccessful | without success |  |
| CNCCC(Oc1ccc(C(F)(F)F)cc1)c1ccccc1 (stereo not drawn) [fluoxetine] |  | refractory |  |  |  |  |  | response of psychosis symptoms to other medications [2]: without success; depression ([7]; human, in vivo): the depression and PTSD were relieved; response to previous medications (Huntington's Disease): no longer responded; response to other medications [12]: unsuccessful |
| COC(=O)C(c1ccccc1)C1CCCCN1 (stereo not drawn) [methylphenidate] | unsuccessful | refractory | without any good results | unsuccessful | without success | unsuccessful | without success | response to other medications [6]: without any changes in their speech or mode of communication; side effects of other medications [11]: made their sleepy; response to other medications [9]: initially treated successfully; response to other medications [12]: Initially their attention problems responded |
| botulinum toxin |  |  |  |  |  |  |  | response to other treatment [13]: only temporarily relieved their symptoms |
| magnesium pemoline | not helpful |  | without any good results |  | without success | unsuccessful | without success | response to other medications (Sexual Function and ADD): unsuccessful; side effects of other medications [11]: made their sleepy |

Source: patent US6696495B2, “Treatment of disorders secondary to organic impairments” (Snowden Pharmaceuticals, LLC, priority 1998, dated 2004)
